This passage reports Cleavage and Turnover results from patent US20020155565A1, “FAP-activated anti-tumor compounds” (priority 2000, published 2002).

Where a SMILES comes first, the peptide text is derived from it. [ ]: non-standard residue; d: D form. The star is where a group is joined. X1 = Cc1c(CC(=O)O)c(=O)oc2cc(N*)ccc12; Cbz = O=C(OCc1ccccc1)*; NMeA = CN[CH](C)C(=O)O; Sar = CNCC(=O)O

The target of the data set is T1, FAP (cell extract from 293 cells stably transfected with FAP) (Homo sapiens, UniProt Q12884).
T1 construct: Cell extract from 293 cells stably transfected with FAP prepared as described; expressed in transfected cells; host or cells: human embryonic kidney 293 cells (clone 293-I/2), vector pFAP.38
T1 sequence (Q12884 1-760): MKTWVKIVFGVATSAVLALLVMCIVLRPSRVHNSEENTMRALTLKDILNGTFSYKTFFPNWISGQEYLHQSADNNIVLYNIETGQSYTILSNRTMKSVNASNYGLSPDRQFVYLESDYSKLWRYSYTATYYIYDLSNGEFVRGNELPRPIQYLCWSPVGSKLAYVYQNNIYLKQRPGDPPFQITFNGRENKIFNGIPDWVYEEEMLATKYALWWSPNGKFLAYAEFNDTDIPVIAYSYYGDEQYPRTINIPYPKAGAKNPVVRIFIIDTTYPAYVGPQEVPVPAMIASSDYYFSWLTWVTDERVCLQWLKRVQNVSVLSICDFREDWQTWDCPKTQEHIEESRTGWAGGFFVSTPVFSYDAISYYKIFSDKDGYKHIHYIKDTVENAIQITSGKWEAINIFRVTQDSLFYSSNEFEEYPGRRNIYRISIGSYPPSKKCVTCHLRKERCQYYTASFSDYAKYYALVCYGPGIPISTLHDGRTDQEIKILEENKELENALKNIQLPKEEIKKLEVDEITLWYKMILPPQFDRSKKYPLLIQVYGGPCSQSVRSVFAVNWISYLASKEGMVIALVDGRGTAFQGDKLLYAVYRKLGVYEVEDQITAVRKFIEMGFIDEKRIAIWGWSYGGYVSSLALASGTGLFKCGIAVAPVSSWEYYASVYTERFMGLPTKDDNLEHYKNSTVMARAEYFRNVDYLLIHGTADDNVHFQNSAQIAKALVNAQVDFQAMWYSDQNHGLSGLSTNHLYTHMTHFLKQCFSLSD
Nature of the data set: Assay for cleavage of AMCA substrates by FAP. In kind it is biochemical. The settings on record: 1 ng FAP enzyme, 20 μl 2.5 mM substrate in 100 μl, room temperature, 1 hour; FAP-negative 293 control extract subtracted. As for the experimental part:
The turnover and cleavage rate have been determined with the aid pf the following assay:
Assay for cleavage of AMCA substrates by FAP
Cell extract from 293 cells stably transfected with FAP prepared as described (see Park, et al., Fibroblast Activation Protein, a Dual Specificity Serine Protease expressed in human tumor stromal fibroblasts. (1999) J. Biol. Chem. 36505-12.). A similar extract was also prepared from parental 293 control cells without FAP. The FAP concentration in the FAP-transfected cell extract was estimated by immunoassay and 1 ng enzyme (diluted in buffer A) was used per assay. FAP-negative 293 control cell extract was used at the same dilution (also in buffer A) as a negative control. Substrate was initially dissolved in dimethylformamide at a concentration of 200 mM and diluted in buffer A to a final concentration of 2.5 mM. A few substrates were not soluble at this concentration and had to be diluted further.
10 μl 10% DMSO in buffer A
70 μl diluted FAP cell extract containing 1 ng FAP enzyme (OR control 293 cell extract without FAP)
Mix, incubate at room temperature for 1 hour, and measure fluorescence in Fluorostar fluorimeter at the following wavelengths:
AMCA conjugates: Excitation: 390 nm, Emission: 440 nm.
The fluorescence measured in the samples treated with control 293 control cell extracts without FAP is subtracted from the values measured in the samples treated with 1 ng FAP enzyme.

Turning to `Cc1c(CC(=O)O)c(=O)oc2cc(NC(=O)CN(C)C(=O)CNC(=O)C(C)NC(=O)C3CCCN3C(=O)OCc3ccccc3)ccc12` (stereo not drawn) [Z-Pro-Ala-Gly-Sar-AMCA] (Cbz-PAG[Sar]-X1; configuration not given here), the Cleavage is on record as 0,09 μM and the Turnover is 0,036%.
On the same counts, the results for `Cc1c(CC(=O)O)c(=O)oc2cc(NC(=O)C(C)N(C)C(=O)CNC(=O)C(C)NC(=O)C3CCCN3C(=O)OCc3ccccc3)ccc12` (stereo not drawn) [Z-Pro-Ala-Gly-MeAla-AMCA] (Cbz-PAG[NMeA]-X1; configuration not given here) are 0,11 μM and 0,044%.
On the same counts, the results for `Cc1c(CC(=O)O)c(=O)oc2cc(NC(=O)CN(C)C(=O)CNC(=O)OCc3ccccc3)ccc12` [Z-Gly-Sar-AMCA, Z-Gly-Sar-AMCA-OH] are 0,22 μM and 0,044%.
